Calls of active or inactive are those of the source.
How the values were obtained:
[1] = molecular target: T1, Endoribonuclease toxin MazF (Escherichia coli K-12, UniProt P0AE70); assay: fluorescent RNA oligo signal without MazF, dose response, counter-screen for MazEF activator project, biochemical, fluorescence, single-stranded RNase substrate (AID 588502); format: functional
T1 sequence (P0AE70 whole entry): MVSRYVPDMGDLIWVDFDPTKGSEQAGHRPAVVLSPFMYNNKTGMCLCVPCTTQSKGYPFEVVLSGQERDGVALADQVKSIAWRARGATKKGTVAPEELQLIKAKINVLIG

[2] = molecular target: T1, Endoribonuclease toxin MazF; assay: MazF toxin RNase activators, dose response, biochemical, fluorescence, single-stranded RNA substrate, uHTS hits (AID 588481); format: functional
[3] = microbe, parasite or virus in culture; format: functional; settings: Mycobacterium tuberculosis
[4] = molecular target: Genome polyprotein (dengue virus type 2, UniProt P29990); assay: Dengue-2 NS5 methyltransferase inhibitors, primary screen, biochemical, confirmation dose response (AID 588689); format: functional
Chain of Genome polyprotein (P29990 2492-3391 limits assumed): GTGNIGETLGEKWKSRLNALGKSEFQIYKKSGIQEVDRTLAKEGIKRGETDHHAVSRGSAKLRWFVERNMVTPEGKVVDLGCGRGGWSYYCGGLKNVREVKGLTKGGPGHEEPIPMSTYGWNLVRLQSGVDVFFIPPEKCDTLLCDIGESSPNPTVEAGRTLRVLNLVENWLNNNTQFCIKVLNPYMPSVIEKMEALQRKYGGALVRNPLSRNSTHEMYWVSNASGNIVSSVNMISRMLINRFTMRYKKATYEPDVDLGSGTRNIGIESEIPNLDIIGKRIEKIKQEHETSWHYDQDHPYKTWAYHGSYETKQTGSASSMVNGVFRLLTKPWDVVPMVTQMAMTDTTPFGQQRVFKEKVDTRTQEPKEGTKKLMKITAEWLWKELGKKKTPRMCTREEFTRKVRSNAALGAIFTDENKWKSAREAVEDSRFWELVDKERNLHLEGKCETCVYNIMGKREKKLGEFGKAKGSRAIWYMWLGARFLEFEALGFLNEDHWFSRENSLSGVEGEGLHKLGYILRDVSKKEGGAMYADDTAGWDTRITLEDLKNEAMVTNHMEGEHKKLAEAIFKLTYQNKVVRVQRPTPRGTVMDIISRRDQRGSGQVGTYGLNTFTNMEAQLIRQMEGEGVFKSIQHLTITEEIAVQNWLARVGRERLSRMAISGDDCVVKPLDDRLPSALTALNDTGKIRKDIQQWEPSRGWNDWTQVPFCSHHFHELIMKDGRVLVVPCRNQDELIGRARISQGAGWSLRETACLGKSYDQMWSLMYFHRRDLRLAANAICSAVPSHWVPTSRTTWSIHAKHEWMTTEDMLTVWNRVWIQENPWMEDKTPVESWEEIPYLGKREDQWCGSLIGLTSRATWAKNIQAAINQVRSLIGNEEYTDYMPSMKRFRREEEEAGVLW

[5] = molecular target: T2, Apoptotic protease-activating factor 1 (Homo sapiens, UniProt O14727); format: functional
T2 sequence (O14727 whole entry): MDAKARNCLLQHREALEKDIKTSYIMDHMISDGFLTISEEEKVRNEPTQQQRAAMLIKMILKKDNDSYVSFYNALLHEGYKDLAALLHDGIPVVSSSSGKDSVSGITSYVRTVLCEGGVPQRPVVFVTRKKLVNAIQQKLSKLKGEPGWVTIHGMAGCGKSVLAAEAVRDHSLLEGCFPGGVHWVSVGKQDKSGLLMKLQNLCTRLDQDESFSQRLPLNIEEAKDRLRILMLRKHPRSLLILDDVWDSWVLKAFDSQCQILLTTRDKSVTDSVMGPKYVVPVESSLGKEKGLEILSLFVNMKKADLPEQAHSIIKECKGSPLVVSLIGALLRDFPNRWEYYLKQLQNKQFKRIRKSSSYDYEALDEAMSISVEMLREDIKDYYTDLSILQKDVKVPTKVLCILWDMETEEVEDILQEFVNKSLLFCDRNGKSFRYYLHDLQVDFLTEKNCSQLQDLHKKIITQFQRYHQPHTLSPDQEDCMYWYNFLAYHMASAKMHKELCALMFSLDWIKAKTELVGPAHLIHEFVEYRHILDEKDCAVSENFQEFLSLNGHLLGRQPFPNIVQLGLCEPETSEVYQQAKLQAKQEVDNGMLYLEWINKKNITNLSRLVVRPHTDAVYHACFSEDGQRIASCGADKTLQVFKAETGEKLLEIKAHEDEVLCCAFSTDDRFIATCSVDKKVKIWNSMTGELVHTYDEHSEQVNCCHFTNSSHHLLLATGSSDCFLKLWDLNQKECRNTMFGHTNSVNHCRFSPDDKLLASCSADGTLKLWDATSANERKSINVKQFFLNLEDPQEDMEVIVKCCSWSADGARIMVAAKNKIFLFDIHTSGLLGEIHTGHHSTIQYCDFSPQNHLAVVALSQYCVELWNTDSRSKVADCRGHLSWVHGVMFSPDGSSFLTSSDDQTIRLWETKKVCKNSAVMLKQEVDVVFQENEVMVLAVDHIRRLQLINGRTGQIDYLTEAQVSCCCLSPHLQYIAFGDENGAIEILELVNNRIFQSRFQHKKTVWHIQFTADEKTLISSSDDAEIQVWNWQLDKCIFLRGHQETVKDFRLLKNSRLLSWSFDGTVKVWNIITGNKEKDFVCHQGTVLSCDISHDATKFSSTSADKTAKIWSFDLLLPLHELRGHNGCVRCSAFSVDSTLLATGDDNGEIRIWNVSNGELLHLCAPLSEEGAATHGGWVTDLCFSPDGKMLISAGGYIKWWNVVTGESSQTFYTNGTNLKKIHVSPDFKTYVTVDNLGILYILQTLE

[6] = molecular target: T3, Zinc finger protein mex-5 (Caenorhabditis elegans, UniProt Q9XUB2); assay: MEX-5/TCR-2 RNA interaction inhibitors, dose response, biochemical, C. elegans, fluorescence polarization (AID 1960)
T3 sequence (Q9XUB2 whole entry): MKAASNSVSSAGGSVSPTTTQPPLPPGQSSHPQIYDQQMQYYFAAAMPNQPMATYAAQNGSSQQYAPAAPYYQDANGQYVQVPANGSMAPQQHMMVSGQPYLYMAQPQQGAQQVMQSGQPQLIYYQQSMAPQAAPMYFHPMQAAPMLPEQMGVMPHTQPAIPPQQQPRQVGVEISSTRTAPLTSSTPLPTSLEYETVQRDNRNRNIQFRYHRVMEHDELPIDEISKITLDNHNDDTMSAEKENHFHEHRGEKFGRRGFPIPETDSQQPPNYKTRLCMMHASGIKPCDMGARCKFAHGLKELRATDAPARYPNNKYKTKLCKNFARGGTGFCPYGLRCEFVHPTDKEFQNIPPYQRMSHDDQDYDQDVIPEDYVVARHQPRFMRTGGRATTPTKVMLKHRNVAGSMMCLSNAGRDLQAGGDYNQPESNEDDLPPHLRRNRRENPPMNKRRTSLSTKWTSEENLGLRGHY

[7] = molecular target: T4, RNA-binding protein pos-1 (Caenorhabditis elegans, UniProt G5EF15); assay: inhibitors of POS-1/mex-3 RNA binding, dose response, biochemical, fluorescence polarization (AID 1964);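 further: purified POS-1 fused to maltose binding protein made in E. coli; potency of compounds blocking POS-1 binding to fluorescent RNA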
T4 sequence (G5EF15 whole entry): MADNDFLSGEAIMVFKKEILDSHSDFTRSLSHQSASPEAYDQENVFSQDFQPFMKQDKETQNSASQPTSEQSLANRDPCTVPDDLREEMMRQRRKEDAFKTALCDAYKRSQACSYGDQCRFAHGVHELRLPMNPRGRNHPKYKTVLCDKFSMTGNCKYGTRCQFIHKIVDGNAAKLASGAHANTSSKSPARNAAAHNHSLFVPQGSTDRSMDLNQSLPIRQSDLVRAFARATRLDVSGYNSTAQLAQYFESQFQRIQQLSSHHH

[8] = molecular target: T5, Coagulation factor XII (Homo sapiens, UniProt P00748); format: functional;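 further: activated factor XIIa alpha cleaving a fluorogenic AMC peptide substrate; inhibitor potency from loss of enzyme activity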
T5 sequence (P00748 whole entry): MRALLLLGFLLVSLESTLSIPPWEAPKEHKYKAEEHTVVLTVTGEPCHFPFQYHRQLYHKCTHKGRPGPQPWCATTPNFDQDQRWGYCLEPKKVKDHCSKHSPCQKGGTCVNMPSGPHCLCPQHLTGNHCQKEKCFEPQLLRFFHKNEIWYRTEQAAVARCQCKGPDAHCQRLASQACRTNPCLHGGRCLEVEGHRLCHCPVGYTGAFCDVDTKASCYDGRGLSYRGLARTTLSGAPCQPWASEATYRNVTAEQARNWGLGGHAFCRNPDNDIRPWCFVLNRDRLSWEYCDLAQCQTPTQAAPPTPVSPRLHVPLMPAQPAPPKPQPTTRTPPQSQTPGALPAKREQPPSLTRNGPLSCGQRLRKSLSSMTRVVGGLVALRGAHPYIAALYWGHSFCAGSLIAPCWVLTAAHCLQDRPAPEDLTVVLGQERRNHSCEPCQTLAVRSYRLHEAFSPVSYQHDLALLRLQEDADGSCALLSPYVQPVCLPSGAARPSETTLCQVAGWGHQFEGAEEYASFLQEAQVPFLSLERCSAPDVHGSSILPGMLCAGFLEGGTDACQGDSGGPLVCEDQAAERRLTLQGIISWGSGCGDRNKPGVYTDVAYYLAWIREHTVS

[9] = molecular target: T6, Probable nicotinate-nucleotide adenylyltransferase (Staphylococcus aureus (strain N315), UniProt P65502); format: functional, Staphylococcus aureus subsp. aureus N315;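 on IC50 Mean: confirmatory dose-response retesting of NadD inhibitor hits first found in an ultra-high-throughput screen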
T6 sequence (P65502 whole entry): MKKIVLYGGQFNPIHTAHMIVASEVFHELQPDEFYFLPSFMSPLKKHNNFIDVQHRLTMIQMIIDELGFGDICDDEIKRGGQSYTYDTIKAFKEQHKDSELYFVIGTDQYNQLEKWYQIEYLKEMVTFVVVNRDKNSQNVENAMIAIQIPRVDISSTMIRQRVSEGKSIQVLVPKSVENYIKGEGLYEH

[10] = molecular target: T6, Probable nicotinate-nucleotide adenylyltransferase; format: functional, Staphylococcus aureus subsp. aureus N315; settings: read-out: IC50_Mean
[11] = molecular target: T7, High affinity choline transporter 1 (Homo sapiens, UniProt Q9GZV3); assay: CHT inhibitors, dose response, cell-based, 5-point CRC, membrane potential dye (AID 504840); format: functional
T7 sequence (Q9GZV3 whole entry): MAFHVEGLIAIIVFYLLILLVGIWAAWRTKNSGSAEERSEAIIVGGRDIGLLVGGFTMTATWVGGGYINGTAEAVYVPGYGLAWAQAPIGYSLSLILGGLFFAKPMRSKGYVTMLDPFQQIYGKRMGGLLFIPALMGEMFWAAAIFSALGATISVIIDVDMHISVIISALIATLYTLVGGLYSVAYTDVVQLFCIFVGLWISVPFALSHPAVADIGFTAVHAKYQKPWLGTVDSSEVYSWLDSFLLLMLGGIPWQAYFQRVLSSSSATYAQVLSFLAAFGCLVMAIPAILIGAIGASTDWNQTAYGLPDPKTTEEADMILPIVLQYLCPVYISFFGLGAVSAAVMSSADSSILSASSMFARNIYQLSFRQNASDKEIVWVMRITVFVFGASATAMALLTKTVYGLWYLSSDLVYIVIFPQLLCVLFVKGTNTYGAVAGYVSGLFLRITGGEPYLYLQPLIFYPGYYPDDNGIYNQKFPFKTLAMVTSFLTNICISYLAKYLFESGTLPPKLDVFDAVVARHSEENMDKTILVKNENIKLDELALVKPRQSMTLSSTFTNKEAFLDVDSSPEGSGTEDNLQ

[12] = molecular target: T8, Adenosylmethionine-8-amino-7-oxononanoate aminotransferase (Mycobacterium tuberculosis, UniProt P9WQ81); assay: Mycobacterium tuberculosis BioA enzyme inhibitor Measured in Biochemical System Using Plate Reader - 2163-02_Inhibitor_Dose_CherryPick_Activity.; format: functional, Mycobacterium tuberculosis UT205
T8 sequence (P9WQ81 whole entry): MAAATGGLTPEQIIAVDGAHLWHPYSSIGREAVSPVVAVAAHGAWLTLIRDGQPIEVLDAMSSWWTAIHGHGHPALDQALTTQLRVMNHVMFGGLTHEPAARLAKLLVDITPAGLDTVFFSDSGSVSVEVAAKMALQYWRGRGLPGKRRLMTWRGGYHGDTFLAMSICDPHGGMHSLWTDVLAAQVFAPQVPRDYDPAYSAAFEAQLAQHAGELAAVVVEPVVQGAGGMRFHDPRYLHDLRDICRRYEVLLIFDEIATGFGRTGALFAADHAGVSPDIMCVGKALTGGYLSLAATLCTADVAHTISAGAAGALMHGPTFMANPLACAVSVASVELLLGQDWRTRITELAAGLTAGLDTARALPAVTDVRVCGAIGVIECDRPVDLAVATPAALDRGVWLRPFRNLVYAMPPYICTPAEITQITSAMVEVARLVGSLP

[13] = cytotoxicity in HEK-293T cells, dose response, cytotoxicity control for TCR NF-kB inhibitor project, luminescence, T-cell screen hits (AID 489026); format: functional, cell-based;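 further: cells exposed to compound about 14 hours before the viability readout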
[14] = molecular target: T9, Microphthalmia-associated transcription factor (Homo sapiens, UniProt O75030); assay: TRPM1 promoter luciferase signal decrease, dose response, MITF inhibitor project, cell-based, SK-MEL-5, cherry-picked, set 3 (AID 493073); format: functional
T9 sequence (O75030 whole entry): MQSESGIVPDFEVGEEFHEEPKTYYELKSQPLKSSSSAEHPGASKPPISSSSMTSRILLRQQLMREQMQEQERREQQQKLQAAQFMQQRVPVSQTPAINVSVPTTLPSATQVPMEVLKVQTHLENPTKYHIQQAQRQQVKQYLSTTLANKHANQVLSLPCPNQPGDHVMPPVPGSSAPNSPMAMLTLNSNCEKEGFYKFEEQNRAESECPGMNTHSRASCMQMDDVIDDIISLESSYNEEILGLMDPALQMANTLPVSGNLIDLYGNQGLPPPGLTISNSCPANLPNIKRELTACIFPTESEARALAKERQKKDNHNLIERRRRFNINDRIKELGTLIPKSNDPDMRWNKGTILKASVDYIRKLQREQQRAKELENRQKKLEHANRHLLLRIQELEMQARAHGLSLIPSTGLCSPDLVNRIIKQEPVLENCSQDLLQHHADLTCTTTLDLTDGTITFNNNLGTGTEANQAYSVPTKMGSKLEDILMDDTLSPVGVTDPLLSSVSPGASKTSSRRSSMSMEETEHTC

[15] = miR-122 activators in hepatoma reporter cells, dose response, cell-based, Huh7 psiCHECK-miR122, Renilla luciferase, cherry-picked (AID 651956); format: functional;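 further: huh7 hepatoma cells stably carrying a psiCHECK-2 miR-122 sensor plasmid; renilla luciferase signal reporting endogenous miR-122 activity after 48 h compound exposure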

For CC(C)OC(=O)/C(C#N)=C/c1ccc(-c2ccc(SC(F)F)cc2)o1, the EC50 [1] was 11.9 µM (active), the EC50 [2] was > 99 µM (inactive) and the CC50 [3] was > 40 µM (active).
For COC(=O)CCC(=O)OC1(C)C(=O)C2=CN(CC3CC3)C(c3ccc(OC)cc3)=CC2=C(Br)C1=O (stereo not given), the IC50 [4] was 30.5 µM (active) and the IC50 [5] was 31.7 µM (active).
With COc1ccc(N/C=C\C(=O)c2ccc(C)cc2)cc1OC the EC50 [1] was 25 µM (inactive), the EC50 [2] was > 99 µM (inactive) and the EC50 [6] was > 300 µM (not active). For the same molecule, the EC50 [7] was > 300 µM (not active).
For O=C(NCCN1C(=O)C2C3C=CC(C3)C2C1=O)Nc1ccccc1 (stereo not given), the IC50 [8] was > 50 µM (inactive).
For CN(C(=O)Oc1cccc2cccnc12)c1ccccc1, the IC50 [8] was > 50 µM (inactive).
With C/C=C\C=C/C(=O)Nc1cccc(C2=NOC3(C2)C[C@@H](C(N)=O)N(C(=O)COc2ccc(Cl)cc2)C3)c1 (stereo not given in full) the IC50 [9] was 10.7 µM (active) and the IC50 [10] was 17.3 µM (active).
For CCN(CC)CCNC(=O)c1cn(CC)c2ccc(S(=O)(=O)N3CCc4ccccc4C3)cc2c1=O, the IC50 [11] was 11.2 µM (active) and the AC50 [12] was 2.88 µM (active).
With COc1cc(-c2noc(C)c2C#Cc2ccsc2)cc(OC)c1OC the IC50 [13] was > 80 µM (inactive).
For CCOC(=O)Cn1/c(=N/C(=O)c2ccc([N+](=O)[O-])s2)sc2ccccc21, the EC50 [1] was > 99 µM (inactive), the EC50 [2] was > 99 µM (inactive) and the AC50 [14] was 3.5 µM (active).
With COc1cc(C(=O)N2Cc3cc4ccccc4nc3C2C)cc(OC)c1OC (stereo not given) the AC50 [12] was 2.01 µM (active).
For CC(=O)N(C[C@H]1N[C@H](CO)[C@@H]1c1ccc(-c2ccccc2)cc1)C(C)C, the AC50 [15] was 23.3 µM (active).
In the case of COc1ccc(OCCNc2c([N+](=O)[O-])c(=O)oc3ccccc23)cc1, the IC50 [5] is reported as 4.61 µM (active).
With Cc1ccc(C(=O)Nc2cccc(C(=O)N/N=C/c3ccc(F)cc3)c2)cc1 the EC50 [1] was > 99 µM (inactive) and the EC50 [2] was 41.1 µM (inactive).
In the case of COc1cc2c(cc1O)CC[C@@H]1[C@@H]2CC[C@]2(C)[C@@H](O)CC[C@@H]12 [2-METHOXYESTRADIOL], the IC50 [13] is reported as > 80 µM (inactive).

— ChEMBL document CHEMBL1201862, “PubChem BioAssay data set” (2004)
